Test results: publication PMC3784060 (Cancer Chemotherapy and Pharmacology, 2013)
Like-named read-outs stand apart in the source and are kept apart here.

Assays:
[1] = tested on: acute leukemia (WBC count); details: cited from earlier work
[2] = tested on: relapsed/refractory AML and ALL; assay: phase II study in acute leukemia: response, blast/WBC reduction, time to progression; type: in vivo, human
Procedure: Each cycle lasted 21 days. Patient could continue treatment on the study in the absence of disease progression or unacceptable toxicity. The next cycle of therapy could start if non-hematologic toxicity from previous cycle recovered to ≤grade 1, and dose delay of up to 3 weeks was allowed for recovery. Permanent dose reduction was required for any ≥grade 3 clinically significant non-hematologic adverse event (70 mg/m^2 → 50 mg/m^2; 50 mg/m^2 → 40 mg/m^2; 40 mg/m^2 → 30 mg/m^2; 30 mg/m^2 → discontinue). To allow for continued treatment of subjects whose cytopenias were due to leukemia and not due to drug toxicity, subsequent cycles of treatment were allowed if absolute neutrophil count (ANC) ≥0.5 × 10^9/L or for ANC <0.5 × 10^9/L but no more than 20 % below the baseline pretreatment levels and platelet count ≥20 × 10^9/L or platelets <20 × 10^9/L but no more than 20 % below the baseline pretreatment levels. Anti-emetic prophylaxis including serotonin-receptor antagonist, metoclopramide, or prochloperazine with or without dexamethasone was allowed. […] Dexamethasone 20 mg IV was given early if symptoms of cytokine release syndrome were observed.
Response was assessed by bone marrow (BM) examination on day 21 of cycles 1 and 2, and every 6 weeks thereafter until complete remission or progressive disease (PD). Response was determined according to the revised recommendations of the International Working Group (IWG) for AML [33]. Toxicities were graded according to the National Cancer Institute Common Terminology Criteria for Adverse Events (NCI CTCAE), version 3.0 (http://ctep.cancer.gov/protocolDevelopment/electronic_applications/docs/ctcaev3.pdf). Hematologic and chemistry profiles were monitored on day 1 and 2 of each cycle or until resolution of acute toxicities and subsequently at least once a week or more frequently depending on the individual patient’s needs.
The primary efficacy endpoint of the study was the ORR, including complete remission (CR), CR with incomplete count recovery (CRi), and partial remission.

[3] = AML patients, all treated subjects

| Compound | patients with >50 % decrease in WBC count ([1]; 1-h bolus for 3 days) [%] | patients with >50 % decrease in WBC count ([1]; hybrid schedule for 3 days) | Beta Posterior Mean (Bayes estimate of the response rate) [2, 3] | Number of Non-responders [2, 3] | Number of Responders [2, 3] | Posterior Probability (This treatment is better) [2, 3] | Observed Response Rate (%) ([2]; AML patients, all treated subjects, frequentist approach) | Median time to progression, Estimate ([2]; all treated AML patients) [weeks] | Number of Events (progression) ([2]; all treated AML patients) | Hazard Ratio, Estimate (Mylotarg/Dinaciclib) ([2]; time to progression, all treated AML patients) |
| --- | --- | --- | --- | --- | --- | --- | --- | --- | --- | --- |
| CN1CC[C@H](c2c(O)cc(O)c3c(=O)cc(-c4ccccc4Cl)oc23)[C@H](O)C1 [flavopiridol] | ~44 | approximately 83% |  |  |  |  |  |  |  |  |
| gemtuzumab ozogamicin [Mylotarg (GO), reference compound] |  |  | 0.167 | 7 | 1 | 0.801 | 12.500 | 7.57 | 7 | 0.71 |
